The values below come from PMC10183829, “Shuffled ATG8 interacting motifs form an ancestral bridge between UFMylation and autophagy” (The EMBO Journal, 2023).

pKd: −log10 of the molar value. Entries after “also recorded” stand apart in the source; their conditions may differ. No end group written: not given here.

One assay concerns the target T1, ATG8A (Arabidopsis thaliana, UniProt Q8LEM4).
T1 construct: made in house; host or cells: E. coli Rosetta2 (DE3) pLysS
Nature of the assay: Fluorescence anisotropy binding of TAMRA-labeled AtC53 IDR-derived peptides to ATG8A. Here is the method: (§1) For fluorescence anisotropy measurements, all peptides were in‐house synthetized and HPLC purified attached to 5(6)‐Carboxytetramethylrhodamine (TAMRA) to its N‐terminal. Binding affinities of ATG8A or AtUFM1 to TAMRA‐labeled peptides were measured by the change in fluorescence anisotropy in an FS5 Spectrofluorometer (Edinburgh Instruments) with excitation at 550 nm (slit width 5 nm) and emission at 580 nm (slit width 5 nm). […] Binding curves were fitted using Prism Software (GraphPad).

The next assay concerns the target T2, AtUFM1 (Arabidopsis thaliana, UniProt Q9CA23).
T2 construct: made in house; host or cells: E. coli Rosetta2 (DE3) pLysS
As to the kind of experiment: Fluorescence anisotropy binding of TAMRA-labeled AtC53 IDR-derived peptides to AtUFM1. The procedure:
as §1

In assay [1] the test system is GST-AtUFM1 / mCh-AtC53 interaction. Nature of the assay: On-bead competition of the AtUFM1-AtC53 interaction. The assay is classed as binding, Arabidopsis thaliana. As to conditions: 1 μM AtC53; cAIM peptide 0-100 μM; 2 independent replicates containing 2 technical replicates. Here is the method:
(§2) Glutathione‐Sepharose 4B bead slurry (Cytiva, average diameter 90 μm) was washed and diluted 10 times in HEPES buffer (25 mM HEPES pH 7.5, 150 mM NaCl, 1 mM DTT). The beads were then incubated for 30 min at 4°C (16 rpm horizontal rotation) with GST‐tagged bait proteins (2 μM of GST, GST‐FIP200 CD, GST‐ATG8A, GST‐GABARAP, GST‐AtUFM1, and GST‐HsUFM1). The beads were washed five times in 10 times the bead volume of HEPES buffer. The buffer was removed, and the beads were resuspended 1:20 in HEPES buffer. 10 μl of diluted beads was mixed with 20 μl of mCherry‐tagged binding partner at a concentration of 1.5 μM (0.5 μl bead slurry and 1 μM binding partner final concentrations) with or without competitor, as stated in the relative experiment. […]
(§3) From images acquired from a Zeiss LSM700 confocal microscope, the quantification of fluorescence was performed in ImageJ (Schindelin et al, [2012]) by drawing a line across each bead and taking the maximum gray value along the line. The maximum gray value for any given pixel represents the fluorescence intensity.
(§4) For images acquired from a Zeiss LSM800 confocal microscope, we used a custom Fiji Macro. […] In the end, the mean fluorescent intensities were exported out and used for quantification.
(§5) For each method, the fluorescence intensity was normalized against the mean of the control condition.

The subject of the next assay is HsUFM1. As to the kind of experiment: Native mass spectrometry (nMS) complex formation with HsUFM1. It counts as binding, Homo sapiens. As to conditions: HsUFM1 5 μM, peptide 25 μM. Here is the method: Proteins were buffer exchanged into ammonium acetate using BioRad Micro Bio‐Spin 6 Columns. Native mass spectrometry experiments were carried out on a Synapt G2Si instrument (Waters, Manchester, UK) with a nanoelectrospray ionization source (nESI). Mass calibration was performed by a separate infusion of NaI cluster ions. Solutions were ionized from a thin‐walled borosilicate glass capillary (i.d. 0.78 mm, o.d. 1.0 mm, Sutter Instrument Co., Novato, CA, USA) pulled in‐house to nESI tip with a Flaming/Brown micropipette puller (Sutter Instrument Co., Novato, CA, USA). A potential of 0.8 kV was applied to the solution via a thin platinum wire (diameter 0.125 mm, Goodfellow, Huntingdon, UK). The following instrument parameters were used: capillary voltage 0.8 kV, sample cone voltage 40 V, source offset 60 V, source temperature 40°C, trap collision energy 4.0 V, and trap gas 3 ml/min. Data were processed using Masslynx V4.2 and OriginPro 2021.

For assay [2], the system named is GST-GABARAP / mCh-HsC53 interaction. As to the kind of experiment: On-bead competition of the GABARAP-HsC53 interaction. The assay is classed as binding, human. As to conditions: 1 μM HsC53; cAIM peptide 0-100 μM; 4 replicates. The procedure: as §2, §3, §4, §5
Assay [3] has as its system GST-ATG8A / mCh-AtC53 interaction. Nature of the assay: On-bead competition of the ATG8A-AtC53 interaction. As to conditions: 1 μM AtC53; cAIM peptide 0-100 μM; 2 independent replicates containing 2 technical replicates. The assay is classed as binding, Arabidopsis thaliana. The procedure: as §2, §3, §4, §5
The test system of assay [4] is GST-HsUFM1 / MBP-HsC53 interaction. As to the kind of experiment: In vitro GST pulldown competition of the HsUFM1-HsC53 interaction. It counts as binding, Homo sapiens. As to conditions: cAIM peptide 200 μM; immunoblot read-out. Here is the method: (§6) For pulldown experiments, 5 μl of glutathione magnetic agarose beads (Pierce Glutathione Magnetic Agarose Beads, Thermo Scientific) was equilibrated by washing them two times with wash buffer (100 mM Sodium Phosphate pH 7.2, 300 mM NaCl, 1 mM DTT, 0.01% (v/v) IGEPAL). Normalized E. coli clarified lysates or purified proteins were mixed, according to the experiment, added to the washed beads, and incubated on an end‐over‐end rotator for 1 h at 4°C. Beads were washed five times with 1 ml wash buffer. Bound proteins were eluted by adding 50 μl Laemmli buffer. Samples were analyzed by western blotting or Coomassie staining.

Assay [5] deals with GST-GABARAP / MBP-C53 interaction. As to the kind of experiment: In vitro GST pulldown competition of the GABARAP-C53 interaction. It counts as binding, human. As to conditions: cAIM peptide 200 μM; immunoblot read-out. The procedure:
as §6

Assay [6] has as its system GST-HsUFM1 / mCh-HsC53 interaction. Nature of the assay: On-bead competition of the HsUFM1-HsC53 interaction. The assay is classed as binding, Homo sapiens. As to conditions: 1 μM HsC53; cAIM peptide 0-100 μM; UBA5 LIR peptide or GABARAP 100 μM. The procedure:
as §2, §3, §4, §5

T1 sequence (Q8LEM4 whole entry): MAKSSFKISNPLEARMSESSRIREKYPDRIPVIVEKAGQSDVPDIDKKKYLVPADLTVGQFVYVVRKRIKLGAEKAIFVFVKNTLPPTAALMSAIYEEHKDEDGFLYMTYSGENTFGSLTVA
T2 sequence (Q9CA23 whole entry): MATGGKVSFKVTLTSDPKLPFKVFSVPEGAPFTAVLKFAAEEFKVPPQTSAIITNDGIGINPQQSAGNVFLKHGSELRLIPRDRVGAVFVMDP

With “AADSIDADITVET [sAIM mut, sAIM mutant peptide where the tryptophan was mutated to alanine]”, the “Behaviour in fluorescence anisotropy titration with ATG8 (in words)” value at ATG8A (50 nM TAMRA-labeled peptide, up to 320 μM ATG8A) is reported as “did not show any change”. The “Behaviour in fluorescence anisotropy titration with UFM1 (in words)” value at AtUFM1 (50 nM TAMRA-labeled peptide, up to 320 μM AtUFM1) is given as “did not show any change”.
In the case of AADSIDWDITVETPEIDWDVSMVEEV [sAIM1,2], on AtUFM1, the pKd was 3.83.
The sequence AADSWDDIITVET [cAIM mut] gave a pKd at ATG8A of 4.03.
Same read-out and setting: to DVSEISWDVSVET [sAIM3] belongs 3.75.
EPLDFDWEIVLEEEM [cAIM peptide]: in assay [1], the “Competition of the AtC53-AtUFM1 interaction (in words)” value is “could not outcompete”. Further, the “Complex formation with HsUFM1 by nMS (in words)” value in the assay with HsUFM1 is reported as “did not appreciably interact; also recorded: negligible amount of 1:1 complex”. In [2], the “Competition of the HsC53-GABARAP interaction (in words)” value was “outcompeted”. Moreover, in [3], the “Competition of the AtC53-ATG8A interaction (in words)” value is “outcompeted”. For the same sequence, the “Competition of the HsUFM1-HsC53 interaction in pulldown (in words)” value in assay [4] is given as “cannot outcompete”. Further, in assay [5], the “Competition of the GABARAP-C53 interaction in pulldown (in words)” value is “outcompeted”. Besides, the “Competition of the HsC53-HsUFM1 interaction (in words)” value in assay [6] is “could not outcompete”.
Regarding GPLHDDNEWNISVVDD [UBA5 LIR peptide], the “Complex formation with HsUFM1 by nMS (in words)” value in the assay with HsUFM1 was “forms a 1:1 complex”. For the same sequence, the “Competition of the HsC53-HsUFM1 interaction (in words)” value in [6] is reported as “able to disrupt”.
